Measured values reported in the supplement of paper PMC10331698.
± gives the standard deviation of the averaged measurements.

Tests used:
Assay in all cases: level (log10 ratio to DMSO vehicle control); higher = higher biomarker level / cell amount than vehicle control
[1] = compound: O=C(O)C(F)(F)C(F)(F)C(F)(F)C(F)(F)C(=O)O [Octafluoroadipic acid] (in DMSO)
Procedure: (§1)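 BioMAP Diversity Plus panel of 12 human primary cell co-culture systems (3C, 4H, LPS, SAg, BT, BF4T, BE3C, CASM3C, HDF3CGF, KF3CT, MyoF, Mphg). Compounds were added 1 h before stimulation and left for 24 h (MyoF 48 h; BT 72 h for soluble read-outs or 6 d for IgG). Biomarkers were read by ELISA, cytotoxicity by SRB, PBMC viability and proliferation by Alamar Blue. Each well value was divided by the mean of 8 DMSO control wells on the same plate and log10 transformed; duplicate blinded samples were tested at 4 concentrations.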

[2] = compound: O=C(O)C(F)(F)C(F)(F)C(F)(F)C(F)(F)C(F)(F)C(F)(F)C(F)(F)C(F)(F)F [Perfluorononanoic acid] (in DMSO)
Procedure: as §1

[3] = compound: OCC(F)(F)OC(F)(F)C(F)(F)OC(F)(F)C(F)(F)OC(F)(F)CO [1H,1H,11H,11H-Perfluorotetraethylene glycol] (in DMSO)
Procedure: as §1

[4] = compound: O=C(O)C(F)(OC(F)(F)C(F)(F)C(F)(F)F)C(F)(F)F [Ammonium perfluoro-2-methyl-3-oxahexanoate] (in Water)
Procedure: as §1

[5] = compound: OCC(F)(F)C(F)(F)C(F)(F)C(F)F [1H,1H,5H-Perfluoropentanol] (in DMSO)
Procedure: as §1

[6] = compound: CCOC(=O)CC(=O)C(F)(F)C(F)(F)F [Ethyl pentafluoropropionyl acetate] (in DMSO)
Procedure: as §1

[7] = compound: O=S(=O)(O)C(F)(F)C(F)(F)OC(F)(F)C(F)(F)F [Perfluoro(2-ethoxyethane)sulfonic acid] (in DMSO)
Procedure: as §1

| Test System | level (log10) ([1]; 6700 nM) | level (log10) ([1]; 20000 nM) | level (log10) ([1]; 60000 nM) | level (log10) ([2]; 6700 nM) | level (log10) ([2]; 20000 nM) | level (log10) ([3]; 6700 nM) | level (log10) ([3]; 20000 nM) | level (log10) ([3]; 60000 nM) | level (log10) ([4]; 6700 nM) | level (log10) ([4]; 20000 nM) | level (log10) ([4]; 60000 nM) | level (log10) ([5]; 6700 nM) | level (log10) ([5]; 20000 nM) | level (log10) ([5]; 60000 nM) | level (log10) ([6]; 6700 nM) | level (log10) ([6]; 20000 nM) | level (log10) ([6]; 60000 nM) | level (log10) ([7]; 6700 nM) | level (log10) ([7]; 20000 nM) | level (log10) ([7]; 60000 nM) |
| --- | --- | --- | --- | --- | --- | --- | --- | --- | --- | --- | --- | --- | --- | --- | --- | --- | --- | --- | --- | --- |
| HDF3CGF:Proliferation 72hr | -0.036 ± 0.0042 | 0.024 ± 0.047 | 0.013 ± 0.017 | 0.143 ± 0.036 | -0.182 ± 0.24 | -0.125 ± 0.1 | -0.178 ± 0.12 | -0.358 ± 0.064 | 0.0575 ± 0.057 | 0.0635 ± 0.066 | -0.0255 ± 0.056 | -0.023 ± 0.058 | 0.035 ± 0.024 | 0.0065 ± 0.025 | -0.019 ± 0.073 | -0.017 ± 0.092 | 0.036 ± 0.017 | -0.0225 ± 0.021 | 0.004 ± 0.0042 | -0.067 ± 0.03 |
| HDF3CGF:EGFR | 0.0135 ± 0.0078 | 0.032 ± 0.048 | 0.032 ± 0.075 | 0.0115 ± 0.057 | -0.037 ± 0.013 | -0.008 ± 0.0085 | -0.0005 ± 0.025 | 0.013 ± 0.021 | -0.017 ± 0.014 | 0.0145 ± 0.026 | 0.0535 ± 0.005 | -0.0465 ± 0.033 | -0.0025 ± 0.028 | 0.022 ± 0.054 | -0.014 ± 0.0057 | -0.018 ± 0.017 | 0.0125 ± 0.037 | -0.035 ± 0.05 | -0.017 ± 0.042 | 0.0315 ± 0.07 |
| HDF3CGF:CCL2/MCP-1 | -0.0025 ± 0.052 | 0.0075 ± 0.036 | 0 ± 0.033 | 0.0235 ± 0.074 | -0.056 ± 0.055 | -0.044 ± 0.031 | -0.073 ± 0.027 | -0.172 ± 0.067 | 0.011 ± 0.025 | 0.0285 ± 0.0021 | 0.019 ± 0.0028 | -0.046 ± 0.027 | -0.014 ± 0.068 | -0.0225 ± 0.047 | -0.022 ± 0.0042 | -0.0135 ± 0.005 | 0.009 ± 0.047 | 0.014 ± 0.0057 | 0.0175 ± 0.0078 | 0.035 ± 0.031 |
| HDF3CGF:CD54/ICAM-1 | 0.004 | 0.004 ± 0.0099 | 0.0005 ± 0.016 | -0.031 ± 0.0099 | -0.033 ± 0.011 | 0.0025 ± 0.018 | -0.019 ± 0.04 | -0.106 ± 0.091 | -0.0075 ± 0.015 | -0.0245 ± 0.005 | -0.0555 ± 0.012 | 0 | -0.01 ± 0.0014 | 0.009 ± 0.023 | 0.006 ± 0.017 | 0.0055 ± 0.0092 | -0.012 ± 0.034 | -0.0185 ± 0.0035 | -0.0205 ± 0.00071 | -0.012 ± 0.018 |
| MyoF:SRB | -0.0105 ± 0.0064 | -0.005 ± 0.013 | -0.0015 ± 0.00071 | 0.0025 ± 0.0064 | -0.0155 ± 0.0021 | -0.0065 ± 0.00071 | -0.0145 ± 0.00071 | -0.0445 ± 0.015 | 0.0095 ± 0.0035 | 0.013 ± 0.013 | 0.0085 ± 0.0035 | -0.0025 ± 0.0078 | -0.004 ± 0.016 | 0.002 ± 0.0071 | -0.001 ± 0.0028 | -0.0065 ± 0.00071 | -0.0045 ± 0.00071 | -0.005 ± 0.0071 | -0.005 | -0.0015 ± 0.0064 |
| MyoF:Collagen III | -0.002 ± 0.021 | -0.0085 ± 0.028 | -0.0015 ± 0.035 | -0.004 ± 0.0071 | -0.0355 ± 0.018 | -0.002 | -0.0085 ± 0.011 | -0.0415 ± 0.0078 | 0.0135 ± 0.0035 | 0.006 ± 0.023 | -0.035 ± 0.034 | -0.0005 ± 0.0092 | 0.0295 ± 0.015 | 0.037 ± 0.045 | -0.0045 ± 0.016 | -0.0045 ± 0.011 | -0.009 ± 0.0042 | -0.0035 ± 0.0092 | -0.005 ± 0.0071 | 0.0105 ± 0.012 |
| KF3CT:uPA | -0.0045 ± 0.039 | -0.0065 ± 0.028 | -0.0055 ± 0.026 | 0.0005 ± 0.018 | 0.009 ± 0.011 | 0.005 ± 0.0057 | 0.018 ± 0.0099 | 0.024 ± 0.031 | -0.0275 ± 0.043 | -0.009 ± 0.0099 | -0.0175 ± 0.019 | 0.0035 ± 0.0092 | -0.0315 ± 0.03 | 0.0375 ± 0.005 | 0.01 ± 0.018 | 0.0095 ± 0.016 | -0.006 ± 0.023 | 0.013 ± 0.011 | 0.006 ± 0.021 | 0.0055 ± 0.022 |
